We go through 2 compounds from patent US9797913B2, “Alzheimer's disease-specific alterations of the ERK1/ERK2 phosphorylation ratio-alzheimer's disease-specific molecular biomarkers (ADSMB)” (BLANCHETTE ROCKEFELLER NEUROSCIENCES INSTITUTE, priority 2005, dated 2017).

“Also recorded” adds a separate entry of the source.

The test system of assay [1] is Erk1/Erk2 phosphorylation ratio in non-AD control (AC) cells. Kind of assay: Aβ(1-42) induction of the Alzheimer's phenotype (ADSMB, bradykinin-induced p-Erk1/p-Erk2 ratio) in control fibroblasts. Particulars: for ADSMB: then 10 nM bradykinin 10 min. Type of assay: cell-based, human. How it is done:
Preparation of Aβ(1-42) solution: Initially 1 mg of Aβ(1-42) was dissolved in hexa-fluoroisopropanol (Sigma, St. Louis, Mo.) at a concentration of 3 mM and separated into aliquots in sterile microcentrifuge tubes. Hexa-fluoroisopropanol was removed under vacuum and lyophilized. The Aβ(1-42) films were stored at −20° C. under dry conditions until use. 5 mM Aβ(1-42) stock solution was prepared from the stored Aβ(1-42) in DMSO just before the experiment. 1.0 μM stock solution was prepared in DMEM medium (supplemented with 10% serum and penicillin/streptomycin) by dissolving Aβ(1-42) from a DSMO stock solution. DMEM medium containing 1.0 μM Aβ(1-42) was added to non-AD control (AC) cells at 90-100% confluence stage in 25 mL cultured flask and kept at cell culture incubator (at 37° C. with 5% CO2) for 24 hrs. Cells were ‘starved’ in serum free medium (DMEM) for 16 hours. 10 nM bradykinin (in DMSO) solution was prepared in DMEM medium with 10% serum. 7 mL of 10 nM BK solution were added to the 25 mL cultured flask and incubated at 37° C. for 10 min. For the controls, the same amount of DMSO was added in DMEM medium with 10% serum. 7 mL of this medium with DMSO (<0.01%) were added to the 25 mL cultured flask and incubated at 37° C. for 10 min. After washing four times with cold (4° C.) 1×PBS, flasks were kept in a dry ice/ethanol mixture for 15 min. Flasks were removed from the dry ice/ethanol mixture and then 100 μL of lysis buffer (10 mM Tris, pH 7.4, 150 mM NaCl, 1 mM EDTA, 1 mM EGTA, 0.5% NP-40, 1% Triton X-100, 1% protease inhibitor cocktail, 1% ser/thr/tyrosine phosphatase inhibitor cocktails) was added into each flask. Flasks were kept on an end-to end shaker in a cold room (4° C.) for 30 min and cells were collected from each flask with a cell scraper. Cells were sonicated and then centrifuged at 14000 rpm for 15 min, and the supernatant was used for Western blotting after total protein assay. Total Erk1, Erk2 and the phosphorylated forms of Erk1 and Erk2 (p-Erk1, p-Erk2) were determined using specific antibodies: anti-regular Erk1/2 and anti-phospho ERK1/2. At least three bradykinin treated flasks (BK+) and correspondingly three control flasks (BK−) were included for each cell line to minimize errors in measurement.
Signals of the Western blot protein bands were scanned with a Fuji LAS-1000 Plus scanner. The intensity of Erk1, Erk2, p-Erk1 and p-Erk2 were measured from scanned protein bands by a specially designed software developed by Dr. Nelson in our Institute (Blanchette Rockefeller Neurosciences Institute, Rockville, Md.). The intensity was measured by strip densitometry. The protein bands were selected by strip and each pixel density was calculated after background subtraction by the software. The ratios of p-Erk1/p-Erk2 were calculated from sample (BK+) and control (BK−) respectively. The following formula was used to distinguish between AD and non-AD cases: ADSMB=[p-Erk1/p-Erk2]^BK+−[p-Erk1/p-Erk2]^BK− ADSMB=Alzheimer's Disease-Specific Molecular Biomarker

Assay [2] deals with Erk1/Erk2 phosphorylation ratio in Aβ(1-42)-treated human fibroblasts. The assay is described as follows: Bryostatin reversal of the Aβ(1-42)-induced Alzheimer's phenotype (ADSMB) in control fibroblasts. The note with it: AC cell lines, 1.0 μM Aβ(1-42) 24 hrs followed by 0.1 nM bryostatin 20 min. Type of assay: cell-based. The method, then: Preparation of Aβ(1-42) solution: Initially 1 mg of Aβ(1-42) was dissolved in hexa-fluoroisopropanol (Sigma, St. Louis, Mo.) at a concentration of 3 mM and separated into aliquots in sterile microcentrifuge tubes. Hexa-fluoroisopropanol was removed under vacuum and lyophilized. The Aβ(1-42) films were stored at −20° C. under dry conditions until use. 5 mM Aβ(1-42) stock solution was prepared from the stored Aβ(1-42) in DMSO just before the experiment. 1.0 μM stock solution was prepared in DMEM medium (supplemented with 10% serum and penicillin/streptomycin) by dissolving Aβ(1-42) from a DSMO stock solution. […] Total Erk1, Erk2 and the phosphorylated forms of Erk1 and Erk2 (p-Erk1, p-Erk2) were determined using specific antibodies: anti-regular Erk1/2 and anti-phospho ERK1/2. […]
Signals of the Western blot protein bands were scanned with a Fuji LAS-1000 Plus scanner. The intensity of Erk1, Erk2, p-Erk1 and p-Erk2 were measured from scanned protein bands by a specially designed software developed by Dr. Nelson in our Institute (Blanchette Rockefeller Neurosciences Institute, Rockville, Md.). The intensity was measured by strip densitometry. The protein bands were selected by strip and each pixel density was calculated after background subtraction by the software. The ratios of p-Erk1/p-Erk2 were calculated from sample (BK+) and control (BK−) respectively. […]

For a further assay, the system named is PKC. Particulars: human fibroblasts; cited from earlier work.
Assay [3] deals with Aβ(1-42) levels in the brains. The note with it: transgenic mice with human AD genes; cited from earlier work.
Another assay deals with AD-transgenic mice. Particulars: chronic exposure; cited from earlier work.

In the case of Beta amyloid (1-42) [Aβ], in assay [1] (average of AC cell lines, 1.0 μM Aβ(1-42) 24 hrs, P < 0.001 vs control), the “ADSMB Average ± SE” value worked out at 0.13 ± 0.01. The ADSMB in assay [1] (cell line AG06959, 1.0 μM Aβ(1-42) 24 hrs) stood at 0.13; in assay [1] (cell line AG07732, 1.0 μM Aβ(1-42) 24 hrs), 0.12; in assay [1] (cell line AG09977, 1.0 μM Aβ(1-42) 24 hrs) it was 0.13; in assay [1] (cell line AG11363, 1.0 μM Aβ(1-42) 24 hrs), 0.16. Also, the “ADSMB after Aβ(1-42) treatment (in words)” value in assay [1] (control (non-AD) cell lines, 1.0 μM Aβ(1-42), 24 hours) is “abnormal positively valued ADSMB phenotype; also recorded: higher and positive”.
In the case of `CCC/C=C/C=C/C(=O)O[C@H]1/C(=C/C(=O)OC)C[C@H]2C[C@H]([C@@H](C)O)OC(=O)C[C@H](O)C[C@@H]3C[C@H](OC(C)=O)C(C)(C)[C@](O)(C[C@@H]4C/C(=C/C(=O)OC)C[C@H](/C=C/C(C)(C)[C@]1(O)O2)O4)O3` [Bryostatin], the “ADSMB after Aβ(1-42) then bryostatin treatment (in words)” value is “entirely reversed” in assay [2]; “small and negative” in assay [2] (listed as bryostatin). Also, in the assay on PKC, the PKC activation result was “enhance PKC activation”. Besides, in assay [3], the “Aβ(1-42) levels in the brains” value is listed as “reduce Aβ(1-42) levels”. Moreover, the survival result in the assay on AD-transgenic mice is listed as “greatly increased survival”.
